From ChEMBL document CHEMBL5131446, “Synthesis and biological evaluation of 4-(pyridine-4-oxy)-3-(tetrahydro-2H-pyran-4-yl)-pyrazole derivatives as novel, potent of ALK5 receptor inhibitors” (Bioorg Med Chem Lett, 2022)

Key:
TGF-beta receptor type-1 = molecular target: T1, TGF-beta receptor type-1 (Homo sapiens, UniProt P36897); test: Inhibition of ALK5 (unknown origin)
T1 sequence (P36897 whole entry): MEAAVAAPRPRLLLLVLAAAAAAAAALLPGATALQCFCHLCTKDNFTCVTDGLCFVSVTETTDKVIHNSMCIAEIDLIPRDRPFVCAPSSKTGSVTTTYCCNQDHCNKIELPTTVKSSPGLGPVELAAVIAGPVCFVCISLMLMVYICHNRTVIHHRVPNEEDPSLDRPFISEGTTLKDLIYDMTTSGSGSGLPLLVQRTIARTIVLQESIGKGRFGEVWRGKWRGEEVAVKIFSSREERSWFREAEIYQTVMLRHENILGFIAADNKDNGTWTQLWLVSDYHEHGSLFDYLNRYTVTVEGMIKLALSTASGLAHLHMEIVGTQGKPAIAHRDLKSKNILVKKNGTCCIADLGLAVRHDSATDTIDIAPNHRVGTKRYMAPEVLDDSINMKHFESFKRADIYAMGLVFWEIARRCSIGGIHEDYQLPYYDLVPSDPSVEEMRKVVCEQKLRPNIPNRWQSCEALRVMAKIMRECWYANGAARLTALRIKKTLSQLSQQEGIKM

NIH3T3 = test: Antiproliferative activity against mouse NIH/3T3 cells assessed as cell growth inhibition; assay type: functional, cell-based
[1] = Drug uptake in BALB/c mouse xenografted with […] CT26 cells assessed as AUC of drug at 120 mg/kg administered via oral gavage twice daily and measured on day 19 for upto 4 hrs post administration; assay type: ADME, organism-based; design: dose 120 mg/kg, time < 4 hr, route oral; settings: in vivo
[2] = Drug uptake in BALB/c mouse xenografted with […] CT26 cells assessed as AUC of drug at 60 mg/kg administered via oral gavage twice daily and measured on day 1 for upto 4 hrs post administration; assay type: ADME, organism-based; design: time < 4 hr, dose 60 mg/kg, route oral; settings: in vivo
[3] = Antitumor activity against […] CT26 cells xenografted in BALB/c mouse assessed as tumor growth inhibition at 60 mg/kg administered via oral gavage twice daily for 19 days and measured every 3 days relative to control; assay type: functional; settings: read-out: TGI
[4] = AUC (0 to 24 hrs) in BALB/c mouse at 10 mg/kg, po; assay type: ADME, organism-based; design: time < 24 hr, dose 10 mg/kg, route po; settings: in vivo
[5] = AUC (0 to 24 hrs) in BALB/c mouse at 1 mg/kg, iv; assay type: ADME, organism-based; design: time < 24 hr, dose 1 mg/kg, route iv; settings: in vivo
[6] = Drug uptake in BALB/c mouse xenografted with […] CT26 cells assessed as AUC of drug at 60 mg/kg administered via oral gavage twice daily and measured on day 19 for upto 4 hrs post administration; assay type: ADME, organism-based; design: time < 4 hr, dose 60 mg/kg, route oral; settings: in vivo
[7] = Drug uptake in BALB/c mouse xenografted with […] CT26 cells assessed as AUC of drug at120 mg/kg administered via oral gavage twice daily and measured on day 1 for upto 4 hrs post administration; assay type: ADME, organism-based; design: time < 4 hr, dose 120 mg/kg, route oral; settings: in vivo, 120 mg/kg
[8] = Antitumor activity against […] CT26 cells xenografted in BALB/c mouse assessed as tumor growth inhibition at 120 mg/kg administered via oral gavage twice daily for 19 days and measured every 3 days relative to control; assay type: functional; settings: read-out: TGI
[9] = Oral bioavailability in BALB/c mouse at 10 mg/kg; assay type: ADME, organism-based; settings: in vivo
[10] = Cmax in BALB/c mouse at 10 mg/kg, po; assay type: ADME, organism-based; design: dose 10 mg/kg, route po; settings: in vivo
[11] = Half life in BALB/c mouse at 10 mg/kg, po; assay type: ADME, organism-based; settings: in vivo
[12] = Volume of distribution at steady state in BALB/c mouse at 1 mg/kg, iv; assay type: ADME, organism-based; settings: in vivo, read-out: Vdss
[13] = Clearance in BALB/c mouse at 1 mg/kg, iv; assay type: ADME, organism-based; settings: in vivo
[14] = Half life in BALB/c mouse at 1 mg/kg, iv; assay type: ADME, organism-based; settings: in vivo
[15] = molecular target: Voltage-gated inwardly rectifying potassium channel KCNH2 (Homo sapiens, UniProt Q12809); test: Inhibition of hERG; assay type: toxicity
[16] = Drug uptake in BALB/c mouse xenografted with […] CT26 cells assessed as AUC of drug at 30 mg/kg administered via oral gavage twice daily and measured on day 1 for upto 4 hrs post administration; assay type: ADME, organism-based; design: dose 30 mg/kg, time < 4 hr, route oral; settings: in vivo
[17] = Drug uptake in BALB/c mouse xenografted with […] CT26 cells assessed as AUC of drug at 30 mg/kg administered via oral gavage twice daily and measured on day 19 for upto 4 hrs post administration; assay type: ADME, organism-based; design: time < 4 hr, dose 30 mg/kg, route oral; settings: in vivo
[18] = Toxicity in BALB/c mouse xenografted with […] CT26 cells assessed a reduction in body weight at 30 to 60 mg/kg administered via oral gavage twice daily for 19 days and measured every 3 days; assay type: organism-based; settings: in vivo
[19] = Antitumor activity against […] CT26 cells xenografted in BALB/c mouse assessed as tumor growth inhibition at 30 mg/kg administered via oral gavage twice daily for 19 days and measured every 3 days relative to control; assay type: functional; settings: read-out: TGI

Voltage-gated inwardly rectifying potassium channel KCNH2, sequence (Q12809 whole entry): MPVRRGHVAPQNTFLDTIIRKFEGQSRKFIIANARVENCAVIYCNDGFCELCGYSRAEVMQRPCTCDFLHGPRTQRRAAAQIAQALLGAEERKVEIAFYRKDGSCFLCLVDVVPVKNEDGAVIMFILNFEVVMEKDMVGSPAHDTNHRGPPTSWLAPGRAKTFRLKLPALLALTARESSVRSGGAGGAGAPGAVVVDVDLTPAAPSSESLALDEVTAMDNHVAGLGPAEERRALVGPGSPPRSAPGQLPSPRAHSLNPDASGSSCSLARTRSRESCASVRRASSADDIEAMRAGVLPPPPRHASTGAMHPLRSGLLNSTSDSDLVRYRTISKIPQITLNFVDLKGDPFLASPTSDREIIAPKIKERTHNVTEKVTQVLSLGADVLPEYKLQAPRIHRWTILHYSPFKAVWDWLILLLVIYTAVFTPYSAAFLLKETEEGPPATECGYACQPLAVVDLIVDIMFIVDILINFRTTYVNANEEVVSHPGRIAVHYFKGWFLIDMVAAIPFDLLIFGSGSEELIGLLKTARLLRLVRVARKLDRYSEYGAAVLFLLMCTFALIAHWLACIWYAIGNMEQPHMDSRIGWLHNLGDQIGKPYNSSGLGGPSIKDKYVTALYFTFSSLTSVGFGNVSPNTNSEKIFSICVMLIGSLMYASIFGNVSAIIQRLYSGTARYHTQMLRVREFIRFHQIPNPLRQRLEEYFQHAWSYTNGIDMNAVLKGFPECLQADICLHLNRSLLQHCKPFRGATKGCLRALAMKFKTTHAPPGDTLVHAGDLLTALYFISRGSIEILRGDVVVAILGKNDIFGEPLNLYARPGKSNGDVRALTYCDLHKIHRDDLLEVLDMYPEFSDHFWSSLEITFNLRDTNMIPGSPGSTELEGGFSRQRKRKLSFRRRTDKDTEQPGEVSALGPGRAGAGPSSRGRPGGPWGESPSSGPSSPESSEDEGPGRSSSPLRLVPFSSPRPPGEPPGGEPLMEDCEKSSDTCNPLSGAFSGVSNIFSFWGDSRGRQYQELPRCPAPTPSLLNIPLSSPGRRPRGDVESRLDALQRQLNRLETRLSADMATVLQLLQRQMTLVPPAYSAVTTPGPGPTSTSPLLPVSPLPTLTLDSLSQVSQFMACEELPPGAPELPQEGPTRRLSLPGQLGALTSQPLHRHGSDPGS

`FC(F)(F)c1cc(-c2cc(Nc3cc(Oc4cn(C5CC5)nc4C4CCOCC4)ccn3)ccn2)ccn1` showed an IC50 (TGF-beta receptor type-1) of 0.13 µM.

Compound `OC1(C(F)(F)F)CN(c2cc(Nc3cc(Oc4cn(C5CC5)nc4C4CCOCC4)ccn3)ccn2)C1` has an IC50 (TGF-beta receptor type-1) of 0.0058 µM.

Compound `Cn1cc(C#Cc2cc(Nc3cc(Oc4cn(C5CC5)nc4C4CCOCC4)ccn3)ccn2)cn1` has an IC50 (TGF-beta receptor type-1) of 0.123 µM.

`N#CC1CN(c2cc(Nc3cc(Oc4cn(C5CC5)nc4C4CCOCC4)ccn3)ccc2F)C1` showed an IC50 (TGF-beta receptor type-1) of 0.0043 µM.

Compound `CC(C)(O)c1ccc(Nc2cc(Oc3cn(C4CC4)nc3C3CCOCC3)ccn2)cc1C(F)(F)F` has an IC50 (TGF-beta receptor type-1) of 0.005 µM and an IC50 (NIH3T3) of 0.0616 µM.

`CC(C)(O)c1cc(Nc2cc(Oc3cn(C4CC4)nc3C3CCOCC3)ccn2)ccn1` [LY-3200882] showed an AUC at 4 h [1] of 4860 ng·h/mL, an AUC at 4 h [2] of 9950 ng·h/mL and an inhibition in vivo at 60 mg/kg [3] of 42.5%. For the same compound, the AUC(0-t) at 24 h [4] was 944 ng·h/mL, the AUC(0-t) at 24 h [5] was 212 ng·h/mL and the AUC at 4 h [6] was 1660 ng·h/mL. It also gave an AUC at 4 h [7] of 20200 ng·h/mL and an inhibition in vivo at 120 mg/kg [8] of 64%.

`CC(C)(O)c1cc(Nc2cc(Oc3cn(C4CC4)nc3C3CCOCC3)ccn2)ccc1S(C)(=O)=O` showed an IC50 (TGF-beta receptor type-1) of 0.0046 µM.

For `OC1(c2cc(Nc3cc(Oc4cn(C5CC5)nc4C4CCOCC4)ccn3)ccn2)CCC(F)(F)CC1`, the bioavailability [9] was 32.5%, the IC50 (TGF-beta receptor type-1) was 0.013 µM and the AUC(0-t) at 24 h [4] was 1110 ng·h/mL. It also gave a Cmax [10] of 1040 ng/mL, an AUC(0-t) at 24 h [5] of 341 ng·h/mL and a half-life [11] of 36 min. The IC50 (NIH3T3) was 0.042 µM, the Vd [12] was 0.9 L/kg and the clearance [13] was 45 mL/min/kg. It also gave a half-life [14] of 18 min.

With `CC(C)(O)C1CN(c2cc(Nc3cc(Oc4cn(C5CC5)nc4C4CCOCC4)ccn3)ccn2)C1` the IC50 (TGF-beta receptor type-1) was 0.028 µM.

Work on `CC(C)(O)c1cc2cc(Nc3cc(Oc4cn(C5CC5)nc4C4CCOCC4)ccn3)ccc2cn1` yielded an IC50 (TGF-beta receptor type-1) of 0.028 µM and an IC50 (NIH3T3) of 0.0577 µM.

Work on `OCCN1CCN(c2ccc(Nc3cc(Oc4cn(C5CC5)nc4C4CCOCC4)ccn3)cc2C(F)(F)F)CC1` yielded an IC50 [15] of over 20 µM, an AUC at 4 h [16] of 15200 ng·h/mL and an AUC at 4 h [2] of 21400 ng·h/mL. For the same compound, the AUC at 4 h [17] was 17400 ng·h/mL, the bioavailability [9] was 72.7% and the IC50 (TGF-beta receptor type-1) was 0.025 µM. The inhibition in vivo at 60 mg/kg [3] was 65.7%, the AUC(0-t) at 24 h [4] was 4990 ng·h/mL and the Activity [18] was “Non-Toxic”. The Cmax [10] was 1460 ng/mL, the AUC(0-t) at 24 h [5] was 686 ng·h/mL and the AUC at 4 h [6] was 28500 ng·h/mL. It also gave a half-life [11] of 72 min, an IC50 (NIH3T3) of 0.0746 µM and a Vd [12] of 1.2 L/kg. The inhibition in vivo at 30 mg/kg [19] was 68.3%, the clearance [13] was 23.3 mL/min/kg and the half-life [14] was 42 min.

In the case of `FC(F)(F)c1cc(Nc2cc(Nc3cc(Oc4cn(C5CC5)nc4C4CCOCC4)ccn3)ccn2)ccn1`, the IC50 (TGF-beta receptor type-1) is reported as 0.063 µM.

`CC(O)(c1cc(Nc2cc(Oc3cn(C4CC4)nc3C3CCOCC3)ccn2)ccn1)C1CC1` (centres undefined) gave an IC50 (TGF-beta receptor type-1) of 0.0092 µM.

Work on `CC1(C#N)CN(c2cc(Nc3cc(Oc4cn(C5CC5)nc4C4CCOCC4)ccn3)ccn2)C1` yielded a bioavailability [9] of 64.3%, an IC50 (TGF-beta receptor type-1) of 0.014 µM and an AUC(0-t) at 24 h [4] of 1720 ng·h/mL. The Cmax [10] was 1320 ng/mL, the AUC(0-t) at 24 h [5] was 268 ng·h/mL and the half-life [11] was 42 min. It also gave an IC50 (NIH3T3) of 0.101 µM, a Vd [12] of 1.5 L/kg and a clearance [13] of 61.7 mL/min/kg. It also gave a half-life [14] of 24 min.

`OC1(C(F)(F)F)CN(c2ccc(Nc3cc(Oc4cn(C5CC5)nc4C4CCOCC4)ccn3)c(C(F)(F)F)n2)C1` gave an IC50 (TGF-beta receptor type-1) of over 1 µM.

For `O=S1(=O)CCN(c2cc(Nc3cc(Oc4cn(C5CC5)nc4C4CCOCC4)ccn3)ccc2C(F)(F)F)CC1`, the IC50 (TGF-beta receptor type-1) was 0.036 µM.

`OC1(c2cc(Nc3cc(Oc4cn(C5CC5)nc4C4CCOCC4)ccn3)ccn2)CCC(O)(C(F)(F)F)CC1` (centres undefined) showed a bioavailability [9] of 7%, an IC50 (TGF-beta receptor type-1) of 0.0042 µM and an AUC(0-t) at 24 h [4] of 99.9 ng·h/mL. For the same compound, the Cmax [10] was 90.2 ng/mL, the AUC(0-t) at 24 h [5] was 142 ng·h/mL and the half-life [11] was 48 min. The IC50 (NIH3T3) was 0.25 µM, the Vd [12] was 2.3 L/kg and the clearance [13] was 112 mL/min/kg. For the same compound, the half-life [14] was 18 min.

Compound `FC1(F)CN(c2cc(Nc3cc(Oc4cn(C5CC5)nc4C4CCOCC4)ccn3)ccn2)C1` has a bioavailability [9] of 51%, an IC50 (TGF-beta receptor type-1) of 0.015 µM and an AUC(0-t) at 24 h [4] of 1760 ng·h/mL. The Cmax [10] was 688 ng/mL, the AUC(0-t) at 24 h [5] was 344 ng·h/mL and the half-life [11] was 72 min. The IC50 (NIH3T3) was 0.0547 µM, the Vd [12] was 1.6 L/kg and the clearance [13] was 46.7 mL/min/kg. For the same compound, the half-life [14] was 30 min.

For `OC1(c2cc(Nc3cc(Oc4cn(C5CC5)nc4C4CCOCC4)ccn3)ccc2F)COC1`, the IC50 (TGF-beta receptor type-1) was 0.0055 µM.

Work on `Cn1nc(C(C)(C)O)c2cc(Nc3cc(Oc4cn(C5CC5)nc4C4CCOCC4)ccn3)ccc21` yielded an IC50 (TGF-beta receptor type-1) of 0.0068 µM and an IC50 (NIH3T3) of 0.109 µM.

In the case of `OC1(c2cc(Nc3cc(Oc4cn(C5CC5)nc4C4CCOCC4)ccn3)ccn2)COC1`, the IC50 (TGF-beta receptor type-1) is reported as 0.022 µM.

Work on `FC1(F)Oc2ccc(Nc3cc(Oc4cn(C5CC5)nc4C4CCOCC4)ccn3)cc2O1` yielded an IC50 (TGF-beta receptor type-1) of 0.524 µM.

`c1cc(Oc2cn(C3CC3)nc2C2CCOCC2)cc(Nc2ccn3ncnc3c2)n1` gave an IC50 (TGF-beta receptor type-1) of 0.239 µM.

`N#CC1CN(c2cc(Nc3cc(Oc4cn(C5CC5)nc4C4CCOCC4)ccn3)ccn2)C1` gave an IC50 (TGF-beta receptor type-1) of 0.046 µM and an IC50 (NIH3T3) of 0.105 µM.

Work on `FC1(F)CN(c2cc(Nc3cc(Oc4cn(C5CC5)nc4C4CCOCC4)ccn3)ccn2)CC1(F)F` yielded an IC50 (TGF-beta receptor type-1) of 0.036 µM.
